The source of these data is publication PMC4492764, “Evaluation of biomarkers for in vitro prediction of drug-induced nephrotoxicity: comparison of HK-2, immortalized human proximal tubule epithelial, and primary cultures of human proximal tubular cells” (Pharmacology Research & Perspectives, 2015).

Type in all cases: cell-based, human
The subject of series [1] is KIM-1. The series can be described thus: KIM-1 protein ELISA in hRPTECs. Set-up: key to Upregulation of KIM-1 hRPTECs P: +: statistically significant increase; −: no significant increase. Conditions: protein levels in culture medium; 72 h time point. The protocol:
(§1) HK-2 cells (ATCC CRL-2190; Manassas, VA) were maintained in DMEM/F12 (Life Technologies; Sydney, NSW, Australia) supplemented with 5 μg/mL insulin, 5 μg/mL transferrin, 5 ng/mL sodium selenite (ITS; Roche; […] (passage 2) and culture kits were purchased from Lonza. […] were maintained in Renal Epithelial Cell BulletKitTM (CC-3190, Lonza) at 37°C and 5% CO2 atmosphere. Cells were passaged to 96-well plates with a density of 4000 cells/well. After 24 h culture, compounds with different concentration series were added into each well and incubated for 4, 24, 48, and 72 h. KIM-1 (DY1750), NGAL (DY1757), and M-CSF (DY216) Duo-Set® ELISA kits were purchased from R&D systems (Minneapolis, MN). Sandwich-ELISA experiments were conducted following the manufacturer's instructions with slight modifications. A 96-well microplate (MaxiSorp®, Nunc, Thermo Scientific, NSW, Australia) was coated with 100 μL of capture antibodies (diluted 1:200 in PBS) and incubated overnight. The plate was then washed twice with washing buffer (0.05% Tween 20 in PBS, pH 7.4) and blocked by adding 300 μL of blocking buffer (1% bovine serum albumin (BSA) in PBS) for 1 h at room temperature. After washing two times with PBS, 100 μL of samples (cell culture media or cell lysates) or standards were then added to each well and incubated for 2 h at room temperature. The biotinylated detection antibodies were then diluted in blocking buffer, added to each well and incubated for 2 h. Horseradish peroxidase (HRP)-labeled streptavidin (100 μL) was then added to bind to detection antibodies. To each well, 100 μL of substrate solution (1:1 mixture of H2O2 and tetramethylbenzidine) was added and incubated for 20 min before reaction termination with 50 μL of stop solution (2N H2SO4). The optical density of each well was measured at 450 nm using a POLARstar Omega plate reader (BMG Labtech). All assays were performed at least three times, with at least two technical replicates in each assay.
A general note: ELISA stands for enzyme-linked immunosorbent assay.

Series [2] has as its system NGAL. Nature of the series: NGAL protein ELISA in hRPTECs. Further details: key to Upregulation of NGAL hRPTECs P: +: statistically significant increase; −: no significant increase. Conditions: for Upregulation of NGAL hRPTECs P: protein levels in culture medium, 72 h time point. On the procedure:
as §1

In series [3] the test system is KIM-1 mRNA. Nature of the series: KIM-1 mRNA qRT-PCR in hRPTECs. Further details: key to Upregulation of KIM-1 hRPTECs R: +: statistically significant increase; −: no significant increase. Conditions: mRNA levels; 72 h time point. On the procedure: HK-2 cells (ATCC CRL-2190; Manassas, VA) were maintained in DMEM/F12 (Life Technologies; Sydney, NSW, Australia) supplemented with 5 μg/mL insulin, 5 μg/mL transferrin, 5 ng/mL sodium selenite (ITS; Roche; […] (passage 2) and culture kits were purchased from Lonza. […] were maintained in Renal Epithelial Cell BulletKitTM (CC-3190, Lonza) at 37°C and 5% CO2 atmosphere. Cells were passaged to 96-well plates with a density of 4000 cells/well. After 24 h culture, compounds with different concentration series were added into each well and incubated for 4, 24, 48, and 72 h. HK-2 and […] were treated with compounds for 4, 24, 48, and 72 h, then the cells were lysed and the RNA reverse transcribed with the TaqMan® Gene Expression Cells-to-CTTM Kit (Life Technologies) according to the manufacturer's instructions. […] Hs00273334_m1), Lcn2 (NGAL; Hs01008571_m1), and Csf1 (M-CSF; Hs00174164_m1). All probes span an exon-exon junction. The real-time quantitative reverse transcription PCR (qRT-PCR) was performed in a 10 μl final reaction mixture using a ViiA 7TM system (Applied Biosystems®, Sydney, NSW, Australia) based on the following thermo cycling conditions: 10 min at 95°C for one cycle, 15 sec at 95°C, 60 sec at 60°C for 40 cycles. The ViiA 7TM software was used for data analysis with Hprt1 expression used for normalization. All assays were performed at least three times, with at least two technical replicates in each assay.
For orientation: Quantitative PCR measures a nucleic acid by following its amplification.

The test system of series [4] is NGAL. Nature of the series: NGAL protein ELISA in freshly isolated hPT cells. Particulars: for NGAL protein upregulation in hPT cells: high doses, within 24 h; for Upregulation of NGAL hPT P(L): protein levels in cell lysates, table title says 72 h time point. On the procedure:
hPT cells were derived from whole human kidneys procured by the International Institute for the Advancement of Medicine (Edison, NJ). All tissues were scored by a pathologist as normal (i.e., derived from noncancerous, nondiseased tissue). […] Whole kidneys were perfused with Wisconsin medium and kept on ice until they arrived at the laboratory, which was usually within 24 h of removal from the donor. All buffers were continuously bubbled with 95% O2/5% CO2 and were maintained at 37°C. Minced cortical pieces from whole kidneys were subjected to collagenase digestion for 60 min, after which the supernatant was filtered through a 70-μm mesh filter to remove tissue fragments, centrifuged at 150g for 7 min, and the pellet resuspended in Dulbecco’s Modified Eagle’s Medium: […] Approximately, 5–7 × 10^6 cells were obtained per 1 g of human kidney cortical tissue. […] Composition of this supplemented medium was based on earlier work establishing optimal conditions for primary culture of rat PT cells (Lash et al., [1995]). Basal medium was a 1:1 mixture of DMEM/F12. […] Cultures were grown at 37°C in a humidified incubator under an atmosphere of 95% air/5% CO2 at pH 7.4. Cultures were grown to approximately 80–90% confluence (generally 5–6 days) prior to experiments. Cells were harvested by either scraping the flasks with a Teflon scraper or by brief incubation with Cellstripper (Cellgro, Herndon, VA) (in Ca^2+- and Mg^2+-free Hanks’ buffer). KIM-1 (DY1750), NGAL (DY1757), and M-CSF (DY216) Duo-Set® ELISA kits were purchased from R&D systems (Minneapolis, MN). Sandwich-ELISA experiments were conducted following the manufacturer’s instructions with slight modifications. A 96-well microplate (MaxiSorp®, Nunc, Thermo Scientific, NSW, Australia) was coated with 100 μL of capture antibodies (diluted 1:200 in PBS) and incubated overnight. The plate was then washed twice with washing buffer (0.05% Tween 20 in PBS, pH 7.4) and blocked by adding 300 μL of blocking buffer (1% bovine serum albumin (BSA) in PBS) for 1 h at room temperature. After washing two times with PBS, 100 μL of samples (cell culture media or cell lysates) or standards were then added to each well and incubated for 2 h at room temperature. The biotinylated detection antibodies were then diluted in blocking buffer, added to each well and incubated for 2 h. Horseradish peroxidase (HRP)-labeled streptavidin (100 μL) was then added to bind to detection antibodies. To each well, 100 μL of substrate solution (1:1 mixture of H2O2 and tetramethylbenzidine) was added and incubated for 20 min before reaction termination with 50 μL of stop solution (2N H2SO4). The optical density of each well was measured at 450 nm using a POLARstar Omega plate reader (BMG Labtech). All assays were performed at least three times, with at least two technical replicates in each assay.

Structures can show the parent of a compound that is named as a salt. Some results are limits rather than exact numbers.

Turning to `CNC(C)C1CCC(N)C(OC2C(N)CC(N)C(OC3OCC(C)(O)C(NC)C3O)C2O)O1` (stereo not shown) [Gentamicin, gentamicin sulfate], in series [1], the “Upregulation of KIM-1 hRPTECs P” value is “+”. The “Upregulation of NGAL hRPTECs P” value in series [2] is “+”. The “Upregulation of KIM-1 hRPTECs R” value in series [3] is “−”. Besides, in series [4], the “NGAL protein upregulation in hPT cells” value is listed as “significant upregulation” and the “Upregulation of NGAL hPT P(L)” value is reported as >60-fold.

Regarding `N.N.[Cl][Pt][Cl]` [Cisplatin, cisplatin], the “Upregulation of KIM-1 hRPTECs P” value in series [1] is recorded as “+”. For the same molecule, in series [2], the “Upregulation of NGAL hRPTECs P” value is “+”. The “Upregulation of KIM-1 hRPTECs R” value in series [3] is “−”. In series [4], the “NGAL protein upregulation in hPT cells” value is “significant upregulation” and the “Upregulation of NGAL hPT P(L)” value is >60-fold.

Consider Colistin sulfate, for which the “Upregulation of KIM-1 hRPTECs P” value in series [1] was “+”. Moreover, the “NGAL protein upregulation in hRPTECs” value in series [2] (4 h, culture medium (Fig. S5C)) is “significant upregulation”. The “Upregulation of NGAL hRPTECs P” value in series [2] is listed as “+”. Further, the “Upregulation of KIM-1 hRPTECs R” value in series [3] is recorded as “−”. In addition, in series [4], the “NGAL protein upregulation in hPT cells” value was “significant upregulation” and the “Upregulation of NGAL hPT P(L)” value is on record as >60-fold.
